Experiment: mn = molality of the nth substance listed, in mol/kg
Details: 101.3 kPa, Liquid, Vibrating tube method

C1CCOC1 [tetrahydrofuran] + O
mass density [kg/m3]
Details	278.15 K	283.15 K	288.15 K	293.15 K	298.15 K	303.15 K	308.15 K	313.15 K	318.15 K
m1 = 0.06882	999.729	999.439	998.826	997.918	996.743	995.331	993.701	991.864	989.851
m1 = 0.1028	999.619	999.317	998.697	997.78	996.596	995.178	993.538	991.694	989.672
m1 = 0.2158	999.282	998.938	998.289	997.343	996.13	994.687	993.021	991.146	989.097
m1 = 0.3098	999.036	998.655	997.977	997.003	995.764	994.293	992.601	990.703	988.631
m1 = 0.4199	998.781	998.36	997.637	996.629	995.359	993.859	992.137	990.208	988.102
m1 = 0.5704	998.489	997.999	997.225	996.162	994.84	993.293	991.526	989.552	987.402
m1 = 0.7194	998.255	997.698	996.863	995.741	994.361	992.771	990.96	988.935	986.735
m1 = 0.8767	998.059	997.427	996.519	995.333	993.894	992.247	990.382	988.304	986.049
m1 = 1.04	997.903	997.18	996.19	994.935	993.435	991.725	989.802	987.671	985.363
m1 = 1.174	997.793	997.013	995.964	994.643	993.087	991.324	989.348	987.162	984.803
m1 = 1.262	997.732	996.903	995.814	994.456	992.856	991.065	989.06	986.838	984.443
m1 = 1.406	997.65	996.744	995.581	994.16	992.503	990.648	988.583	986.311	983.864
m1 = 1.576	997.559	996.552	995.314	993.821	992.084	990.16	988.025	985.688	983.169

Source: the NIST ThermoML archive (doi:10.1016/j.jct.2013.12.028)
